Experimental findings from US9353090B2, “Heterocyclic carboxylic acids as activators of soluble guanylate cyclase” (Boehringer Ingelheim International GmbH, priority 2014, dated 2016) are described below.

pEC50: −log10 of the molar value.

The conditions of series [1]: 24 h.
Series [2] is described as follows: Human liver microsome (HLM) metabolic stability assay. The settings on record: human liver microsomes. It counts as in vitro ADME. The essentials: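 Compound at 1 uM incubated with human liver microsomes at 37° C. for 60 min after NADPH addition. Aliquots quenched in cold acetonitrile at 0, 5, 15, 30 and 60 min and analysed by LC/MS/MS. t1/2 from ln(% remaining) vs time slope; CLint, CLh and % Qh derived from it (n=1).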
A general note: Liver microsomes are a subcellular fraction often used to study metabolism.

Series [3] addresses human soluble guanylate cyclase alpha 1 and beta 1 subunits (sGC) (Homo sapiens (Human), UniProt Q02153). The series is described as follows: sGC cellular activator assay (cGMP, HTRF), in the presence and absence of 50% human serum. It counts as cell-based. To be noted: CHO cells stably expressing human sGC alpha 1/beta 1, preincubated with 40 microM ODQ; cGMP by HTRF; Table 2 does not state whether with or without 50% human serum. The essentials:
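Heme-oxidized conditions: ODQ (40 microM, 1 h) pretreatment of CHO cells stably expressing human α1/β1 sGC, in buffer containing 0.1% BSA and IBMX.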
In general terms: TR-FRET usually uses a lanthanide donor and a delayed reading to cut background.

Chain of human soluble guanylate cyclase alpha 1 and beta 1 subunits (sGC) (Q02108 whole entry partner): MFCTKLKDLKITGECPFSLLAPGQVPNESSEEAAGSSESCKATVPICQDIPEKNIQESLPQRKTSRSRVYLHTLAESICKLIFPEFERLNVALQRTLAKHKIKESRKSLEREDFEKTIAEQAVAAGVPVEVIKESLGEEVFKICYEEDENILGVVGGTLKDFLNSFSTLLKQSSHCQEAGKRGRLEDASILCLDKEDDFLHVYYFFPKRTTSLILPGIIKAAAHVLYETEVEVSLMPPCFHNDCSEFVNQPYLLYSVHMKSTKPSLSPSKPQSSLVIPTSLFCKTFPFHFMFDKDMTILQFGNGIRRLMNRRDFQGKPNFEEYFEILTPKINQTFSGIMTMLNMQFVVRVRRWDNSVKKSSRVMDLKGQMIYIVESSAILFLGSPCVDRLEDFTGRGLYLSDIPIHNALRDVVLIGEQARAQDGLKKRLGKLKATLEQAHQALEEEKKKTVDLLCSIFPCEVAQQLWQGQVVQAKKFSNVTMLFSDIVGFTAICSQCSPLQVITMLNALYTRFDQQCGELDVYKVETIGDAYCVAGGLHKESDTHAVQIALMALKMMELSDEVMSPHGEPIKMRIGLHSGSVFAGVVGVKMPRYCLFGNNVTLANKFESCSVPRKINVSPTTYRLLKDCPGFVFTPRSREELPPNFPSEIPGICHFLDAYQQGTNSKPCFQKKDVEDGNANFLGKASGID
Chain of human soluble guanylate cyclase alpha 1 and beta 1 subunits (sGC) (Q02153 whole entry): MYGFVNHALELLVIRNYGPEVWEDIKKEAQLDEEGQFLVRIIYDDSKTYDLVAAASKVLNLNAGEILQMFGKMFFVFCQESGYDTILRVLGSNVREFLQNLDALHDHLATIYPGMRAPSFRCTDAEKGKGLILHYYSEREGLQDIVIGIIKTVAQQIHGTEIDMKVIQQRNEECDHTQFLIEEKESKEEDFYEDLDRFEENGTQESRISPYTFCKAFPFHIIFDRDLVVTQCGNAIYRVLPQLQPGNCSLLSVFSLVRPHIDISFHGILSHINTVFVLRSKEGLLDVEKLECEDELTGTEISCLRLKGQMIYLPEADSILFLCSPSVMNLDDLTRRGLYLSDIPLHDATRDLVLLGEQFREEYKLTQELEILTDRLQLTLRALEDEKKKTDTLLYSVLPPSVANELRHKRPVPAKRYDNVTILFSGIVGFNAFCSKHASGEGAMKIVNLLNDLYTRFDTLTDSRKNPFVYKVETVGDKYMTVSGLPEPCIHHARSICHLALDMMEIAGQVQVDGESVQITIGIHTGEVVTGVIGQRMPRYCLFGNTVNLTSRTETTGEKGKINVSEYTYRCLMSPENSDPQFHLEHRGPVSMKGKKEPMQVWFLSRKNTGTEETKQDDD

One may read the pEC50 as the EC50 on a negative log10 scale, so that one unit is a factor of ten. With `Cc1c(COc2ccccc2-c2cccc(N3CC[C@@]4(C(=O)O)C[C@H]4C3)n2)ccc2c1CCN(C1CCOCC1)C2` [Compound 3], the “Solubility (pH 2.2)” value in series [1] (pH 2.2) was found to be 140 μg/mL. Moreover, in series [1] (pH 4.5), the “Solubility (pH 4.5)” value stood at 120 μg/mL. Besides, the “Solubility (pH 6.8)” value in series [1] (pH 6.8) is reported as 60 μg/mL. Also, in series [2], the “Metabolic stability (Qh %), % hepatic blood flow” value was less than 24%. Moreover, the pEC50 in series [3] was 8.52.
